According to patent US20240148821A1, “PHARMACEUTICAL USE OF CYCLIC PEPTIDE COMPOUND” (CHUGAI SEIYAKU KABUSHIKI KAISHA, priority 2021, published 2024):
Bridge positions count the residues as written; N and C are the ends. Square brackets hold non-standard residues; d marks the D form. Peptide text beside a SMILES is read from it. * marks the point of attachment. hPhe(3,5-F2-4-CF3) = N[C@@H](CCc1cc(F)c(C(F)(F)F)c(F)c1)C(=O)O; hPhe(3-Cl-4-CF3) = N[C@@H](CCc1ccc(C(F)(F)F)c(Cl)c1)C(=O)O; NEtPhe(4-CF3) = CCN[C@@H](Cc1ccc(C(F)(F)F)cc1)C(=O)O; NMePhe(4-CF3) = CN[C@@H](Cc1ccc(C(F)(F)F)cc1)C(=O)O; NEtPhe(4-Me) = CCN[C@@H](Cc1ccc(C)cc1)C(=O)O; NMeAbu(4,4,4-F3) = CN[C@@H](CC(F)(F)F)C(=O)O; NMePhe(4-Me) = CN[C@@H](Cc1ccc(C)cc1)C(=O)O; NMeAla(cPent) = CN[C@@H](CC1CCCC1)C(=O)O; NMeGly(cPent) = CN[C@H](C(=O)O)C1CCCC1; Pro(4,4-F2) = O=C(O)[C@@H]1CC(F)(F)CN1; NMeCha = CN[C@@H](CC1CCCCC1)C(=O)O; NMehLeu = CN[C@@H](CCC(C)C)C(=O)O; Hyp = O=C(O)[C@@H]1C[C@@H](O)CN1; NMeChg = CN[C@H](C(=O)O)C1CCCCC1; NMeI = CC[C@H](C)[C@H](NC)C(=O)O; NMeD = CN[C@@H](CC(=O)O)C(=O)O; NMeL = CN[C@@H](CC(C)C)C(=O)O; d(β3hA) = C[C@@H](N)CC(=O)O; Morpholide = C1CN(*)CCO1; NMeA = CN[C@@H](C)C(=O)O; Pyrrolidide = C1CCN(*)C1; Ac5c = NC1(C(=O)O)CCCC1; Aze = O=C(O)[C@@H]1CCN1; Sar = CNCC(=O)O

Tests used:
[1] = molecular target: protein-protein interaction between Kras and SOS1 (biotin-tagged human Kras loaded with GDP, His-tagged human SOS1) (Homo sapiens (Human), UniProt P01116, G12D); assay: Protein-protein interaction inhibition between Kras and SOS1 (KrasG12D-SOS PPI) using AlphaScreen; type: biochemical; conditions: AlphaScreen; biotin-tagged human Kras loaded with GDP, His-tagged human SOS1; read-out: KRAS G12D-SOS PPI IC50;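 further: kras produced in E. coli, Ni-coupled donor beads and streptavidin acceptor beads, excitation 680 nm with emission detected at 520–620 nm via singlet oxygen transfer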
[2] = test system: Human pancreatic cancer cell line AsPC-1 (G12D mutation Kras); assay: AsPC-1 cell growth inhibition (AsPC-1 CGI); type: cell-based; conditions: read-out: AsPC-1 cell growth inhibition, 50% growth inhibitory concentration (IC50 value); 96 hours, CellTiter-Glo, values classified in ranges
Procedure: Test compounds were serially dilated with dimethyl sulfoxide, and 200 nL was then dispensed to a U-bottom 96-well plate using Labcyte Echo. […] The cell suspension was dispensed to a. plate containing a test compound at 100 μL per well and incubated at 37° C. in a 5% carbon dioxide gas incubator. 96 hours later, 80 μL of CellTiter-Glo (Promega) was added to each well and fluorescence was measured.

Row | Structure (SMILES) | IC50 [1] [nM] | IC50 [2] [nM]
1 | CCO[C@@H]1C[C@H]2C(=O)NC3(CCCC3)C(=O)N(C)[C@@H](C3CCCCC3)C(=O)N(C)[C@H](C(=O)N3CCOCC3)CC(=O)N(C)[C@@H](CC(C)C)C(=O)N[C@@H]([C@@H](C)CC)C(=O)N(C)CC(=O)N(C)CC(=O)N(C)[C@@H](CC3CCCCC3)C(=O)N(C)CC(=O)N[C@@H](CCc3cc(F)c(C(F)(F)F)c(F)c3)C(=O)N2C1 [Compound 1290] ([NMeL]I[Sar][Sar][NMeCha][Sar][hPhe(3,5-F2-4-CF3)][Hyp](Et)[Ac5c][NMeChg][NMeD]-Morpholide; lactam N-11) | 0.63 | ≤ 20
2 | CC[C@H](C)[C@@H]1NC(=O)[C@H](CC(C)C)N(C)C(=O)C[C@@H](C(=O)N2CCOCC2)N(C)C(=O)[C@H]([C@@H](C)CC)N(C)C(=O)C2(CCCC2)NC(=O)[C@@H]2CCCN2C(=O)[C@H](CCc2ccc(C(F)(F)F)c(Cl)c2)NC(=O)CN(C)C(=O)[C@H](Cc2ccc(C(F)(F)F)cc2)N(C)C(=O)[C@@H]2CCN2C(=O)[C@H](C)NC1=O [Compound 1293] ([NMeL]IA[Aze][NMePhe(4-CF3)][Sar][hPhe(3-Cl-4-CF3)]P[Ac5c][NMeI][NMeD]-Morpholide; lactam N-11) | 0.96 | ≤ 20
3 | CCO[C@@H]1C[C@H]2C(=O)NC3(CCCC3)C(=O)N(C)[C@@H](C3CCCCC3)C(=O)N(C)[C@H](C(=O)N3CCOCC3)CC(=O)N(C)[C@@H](CC(F)(F)F)C(=O)N[C@@H]([C@@H](C)CC)C(=O)N(C)CC(=O)N(C)CC(=O)N(C)[C@@H](Cc3ccc(C(F)(F)F)cc3)C(=O)N(C)CC(=O)N[C@@H](CCc3cc(F)c(C(F)(F)F)c(F)c3)C(=O)N2C1 [Compound 1297] ([NMeAbu(4,4,4-F3)]I[Sar][Sar][NMePhe(4-CF3)][Sar][hPhe(3,5-F2-4-CF3)][Hyp](Et)[Ac5c][NMeChg][NMeD]-Morpholide; lactam N-11) | 0.51 | ≤ 20
4 | CC[C@H](C)[C@@H]1NC(=O)[C@H](CC(C)C)N(C)C(=O)C[C@@H](C)NC(=O)[C@H](C2CCCC2)N(C)C(=O)C2(CCCC2)NC(=O)[C@@H]2CCCN2C(=O)[C@H](CCc2ccc(C(F)(F)F)c(Cl)c2)NC(=O)CN(C)C(=O)[C@H](C)N(C)C(=O)[C@@H]2CCN2C(=O)[C@H](C)N(C)C1=O [Compound 1300] (cyclo([Ac5c][NMeGly(cPent)][d(β3hA)][NMeL]I[NMeA][Aze][NMeA][Sar][hPhe(3-Cl-4-CF3)]P)) | 94 | > 500
5 | CCO[C@@H]1C[C@H]2C(=O)NC3(CCCC3)C(=O)N(C)[C@@H](C3CCCCC3)C(=O)N(C)[C@H](C(=O)N3CCCC3)CC(=O)N(C)[C@@H](CC(F)(F)F)C(=O)N[C@@H]([C@@H](C)CC)C(=O)N(C)CC(=O)N(C)CC(=O)N(C)[C@@H](Cc3ccc(C)cc3)C(=O)N(C)CC(=O)N[C@@H](CCc3cc(F)c(C(F)(F)F)c(F)c3)C(=O)N2C1 [Compound 1301] ([NMeAbu(4,4,4-F3)]I[Sar][Sar][NMePhe(4-Me)][Sar][hPhe(3,5-F2-4-CF3)][Hyp](Et)[Ac5c][NMeChg][NMeD]-Pyrrolidide; lactam N-11) | 0.67 | ≤ 20
6 | CC[C@H](C)[C@@H]1NC(=O)[C@H](CC(C)C)N(C)C(=O)C[C@@H](C(=O)N2CCOCC2)N(C)C(=O)[C@H](C2CCCC2)N(C)C(=O)C2(CCCC2)NC(=O)[C@@H]2CCCN2C(=O)[C@H](CCc2cc(F)c(C(F)(F)F)c(F)c2)NC(=O)CN(C)C(=O)[C@H](CC2CCCCC2)N(C)C(=O)[C@@H]2CCN2C(=O)[C@H](C)N(C)C1=O [Compound 1308] ([NMeL]I[NMeA][Aze][NMeCha][Sar][hPhe(3,5-F2-4-CF3)]P[Ac5c][NMeGly(cPent)][NMeD]-Morpholide; lactam N-11) | 0.65 | ≤ 20
7 | CC[C@H](C)[C@@H]1NC(=O)[C@H](CCC(C)C)N(C)C(=O)C[C@@H](C(=O)N2CCCC2)N(C)C(=O)[C@H]([C@@H](C)CC)N(C)C(=O)C2(CCCC2)NC(=O)[C@@H]2CCCN2C(=O)[C@H](CCc2ccc(C(F)(F)F)c(Cl)c2)NC(=O)CN(C)C(=O)[C@H](Cc2ccc(C(F)(F)F)cc2)N(C)C(=O)[C@@H]2CCN2C(=O)[C@H](C)NC1=O [Compound 1310] ([NMehLeu]IA[Aze][NMePhe(4-CF3)][Sar][hPhe(3-Cl-4-CF3)]P[Ac5c][NMeI][NMeD]-Pyrrolidide; lactam N-11) | 0.87 | ≤ 20
8 | CC[C@H](C)[C@@H]1NC(=O)[C@H](CC(C)C)N(C)C(=O)C[C@@H](C(=O)N2CCOCC2)N(C)C(=O)[C@H]([C@@H](C)CC)N(C)C(=O)C2(CCCC2)NC(=O)[C@@H]2CC(F)(F)CN2C(=O)[C@H](CCc2ccc(C(F)(F)F)c(Cl)c2)NC(=O)CN(C)C(=O)[C@H](Cc2ccc(C(F)(F)F)cc2)N(C)C(=O)[C@@H]2CCN2C(=O)[C@H](C)N(C)C1=O [Compound 1311] ([NMeL]I[NMeA][Aze][NMePhe(4-CF3)][Sar][hPhe(3-Cl-4-CF3)][Pro(4,4-F2)][Ac5c][NMeI][NMeD]-Morpholide; lactam N-11) | 0.51 | ≤ 20
9 | CC[C@H](C)[C@@H]1NC(=O)[C@H](CC(C)C)N(C)C(=O)C[C@@H](C(=O)N2CCOCC2)N(C)C(=O)[C@H]([C@@H](C)CC)N(C)C(=O)C2(CCCC2)NC(=O)[C@@H]2CCCN2C(=O)[C@H](CCc2ccc(C(F)(F)F)c(Cl)c2)NC(=O)CN(C)C(=O)[C@H](Cc2ccc(C(F)(F)F)cc2)N(CC)C(=O)[C@@H]2CCN2C(=O)[C@H](C)N(C)C1=O [Compound 1312] ([NMeL]I[NMeA][Aze][NEtPhe(4-CF3)][Sar][hPhe(3-Cl-4-CF3)]P[Ac5c][NMeI][NMeD]-Morpholide; lactam N-11) | 0.74 | ≤ 20
10 | CC[C@H](C)[C@@H]1NC(=O)[C@H](CC(C)C)N(C)C(=O)C[C@@H](C(=O)N2CCCC2)N(C)C(=O)[C@H]([C@@H](C)CC)N(C)C(=O)C2(CCCC2)NC(=O)[C@@H]2CCCN2C(=O)[C@H](CCc2ccc(C(F)(F)F)c(Cl)c2)NC(=O)CN(C)C(=O)[C@H](Cc2ccc(C(F)(F)F)cc2)N(CC)C(=O)[C@@H]2CCN2C(=O)[C@H](C)N(C)C1=O [Compound 1319] ([NMeL]I[NMeA][Aze][NEtPhe(4-CF3)][Sar][hPhe(3-Cl-4-CF3)]P[Ac5c][NMeI][NMeD]-Pyrrolidide; lactam N-11) | 0.82 | ≤ 20
11 | CC[C@H](C)[C@@H]1NC(=O)[C@H](CC2CCCC2)N(C)C(=O)C[C@@H](C(=O)N2CCCC2)N(C)C(=O)[C@H]([C@@H](C)CC)N(C)C(=O)C2(CCCC2)NC(=O)[C@@H]2CCCN2C(=O)[C@H](CCc2ccc(C(F)(F)F)c(Cl)c2)NC(=O)CN(C)C(=O)[C@H](Cc2ccc(C(F)(F)F)cc2)N(C)C(=O)[C@@H]2CCN2C(=O)[C@H](C)NC1=O [Compound 1320] ([NMeAla(cPent)]IA[Aze][NMePhe(4-CF3)][Sar][hPhe(3-Cl-4-CF3)]P[Ac5c][NMeI][NMeD]-Pyrrolidide; lactam N-11) | 1.4 | ≤ 20
12 | CC[C@H](C)[C@@H]1NC(=O)[C@H](CC(C)C)N(C)C(=O)C[C@@H](C(=O)N2CCOCC2)N(C)C(=O)[C@H]([C@@H](C)CC)N(C)C(=O)C2(CCCC2)NC(=O)[C@@H]2CCCN2C(=O)[C@H](CCc2ccc(C(F)(F)F)c(Cl)c2)NC(=O)CN(C)C(=O)[C@H](Cc2ccc(C)cc2)N(CC)C(=O)[C@@H]2CCN2C(=O)[C@H](C)N(C)C1=O [Compound 1322] ([NMeL]I[NMeA][Aze][NEtPhe(4-Me)][Sar][hPhe(3-Cl-4-CF3)]P[Ac5c][NMeI][NMeD]-Morpholide; lactam N-11) | 0.82 | ≤ 20
